For 25 molecules, IC50 results are on record in patent US11420973B2, “Amide substituted indole compounds useful as TLR inhibitors” (BRISTOL-MYERS SQUIBB COMPANY, priority 2017, dated 2022).

Assay [1] concerns the target human TLR9 (Homo sapiens (Human), UniProt Q9NR96). As to the kind of experiment: TLR9 inhibition reporter assay (HEK-Blue SEAP reporter, ODN2006 stimulation).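 Note: SEAP reporter under IFN-β minimal promoter with five NF-κB and AP-1 sites, 22 h incubation, compounds 0.05 nM–50 µM, inhibition relative to agonist plus DMSO versus known inhibitor.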 Conditions: read-out: TLR9 IC50; HEK-Blue cells overexpressing human TLR9, ODN2006 5 nM, SEAP reporter.
Assay [2] has as its target human TLR7 (Homo sapiens (Human), UniProt Q9NYK1). Put plainly: TLR7 inhibition reporter assay (HEK-Blue SEAP reporter, gardiquimod stimulation). Conditions: HEK-Blue cells overexpressing human TLR7, gardiquimod 7.5 μM. Type of assay: cell-based. In general terms: Reporter assays use an easily measured gene product as a stand-in for the process of interest.
Procedure: HEK-Blue™-cells (Invivogen) overexpressing human TLR7, TLR8 or TLR9 receptors were used for screening inhibitors of these receptors using an inducible SEAP (secreted embryonic alkaline phosphatase) reporter gene under the control of the IFN-β minimal promoter fused to five NF-κB and AP-1-binding sites. Briefly, cells are seeded into Greiner 384 well plates (15000 cells per well for TLR7, 20,000 for TLR8 and 25,000 for TLR9) and then treated with test compounds in DMSO to yield a final dose response concentration range of 0.05 nM-50 μM. After a 30 minute compound pre-treatment at room temperature, the cells are then stimulated with a TLR7 ligand (gardiquimod at a final concentration of 7.5 μM), TLR8 ligand (R848 at a final concentration of 15.9 μM) or TLR9 ligand (ODN2006 at a final concentration of 5 nM) to activate NF-κB and AP-1 which induce the production of SEAP. After a 22 hour incubation at 37° C., 5% CO2, SEAP levels are determined with the addition of HEK-Blue™ Detection reagent (Invivogen), a cell culture medium that allows for detection of SEAP, according to manufacturer's specifications.
The target in assay [3] is human TLR8 (Homo sapiens (Human), UniProt Q9NR97). As to the kind of experiment: TLR8 inhibition reporter assay (HEK-Blue SEAP reporter, R848 stimulation).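 Note: SEAP driven by IFN-β minimal promoter with NF-κB and AP-1 sites, 22 h incubation, compounds 0.05 nM–50 µM, inhibition scaled between agonist plus DMSO and reference inhibitor wells.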 Conditions: read-out: TLR8 IC50; HEK-Blue cells overexpressing human TLR8, R848 15.9 μM, SEAP reporter.
Chain of human TLR8 (Q9NR97 27-1041): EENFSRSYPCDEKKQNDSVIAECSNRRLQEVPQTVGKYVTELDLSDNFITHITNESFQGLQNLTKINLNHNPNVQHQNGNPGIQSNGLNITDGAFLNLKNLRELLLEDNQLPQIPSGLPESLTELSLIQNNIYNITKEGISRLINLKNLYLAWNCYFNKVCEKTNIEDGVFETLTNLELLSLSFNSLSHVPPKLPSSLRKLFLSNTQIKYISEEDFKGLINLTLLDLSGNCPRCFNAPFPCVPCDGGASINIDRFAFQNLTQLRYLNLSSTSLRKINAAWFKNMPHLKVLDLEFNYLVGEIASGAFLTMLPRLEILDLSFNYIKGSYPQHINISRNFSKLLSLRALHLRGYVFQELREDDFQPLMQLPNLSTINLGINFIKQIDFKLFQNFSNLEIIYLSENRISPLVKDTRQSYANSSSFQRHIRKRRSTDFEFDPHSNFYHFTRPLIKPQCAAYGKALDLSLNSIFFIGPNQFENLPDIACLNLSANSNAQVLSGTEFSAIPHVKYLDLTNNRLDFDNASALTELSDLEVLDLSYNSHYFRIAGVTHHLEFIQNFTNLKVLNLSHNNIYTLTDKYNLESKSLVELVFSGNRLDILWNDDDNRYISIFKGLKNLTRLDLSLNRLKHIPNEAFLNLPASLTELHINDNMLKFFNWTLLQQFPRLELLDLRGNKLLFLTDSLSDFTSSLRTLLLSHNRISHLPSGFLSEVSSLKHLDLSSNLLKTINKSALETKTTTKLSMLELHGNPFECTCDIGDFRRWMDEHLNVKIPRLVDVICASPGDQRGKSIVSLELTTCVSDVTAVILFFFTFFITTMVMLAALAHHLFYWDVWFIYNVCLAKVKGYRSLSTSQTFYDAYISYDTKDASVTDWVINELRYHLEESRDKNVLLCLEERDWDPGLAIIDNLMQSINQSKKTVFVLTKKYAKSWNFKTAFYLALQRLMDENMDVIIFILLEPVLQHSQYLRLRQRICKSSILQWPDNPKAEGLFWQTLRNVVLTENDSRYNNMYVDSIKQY

Chain of human TLR7 (Q9NYK1 27-1049): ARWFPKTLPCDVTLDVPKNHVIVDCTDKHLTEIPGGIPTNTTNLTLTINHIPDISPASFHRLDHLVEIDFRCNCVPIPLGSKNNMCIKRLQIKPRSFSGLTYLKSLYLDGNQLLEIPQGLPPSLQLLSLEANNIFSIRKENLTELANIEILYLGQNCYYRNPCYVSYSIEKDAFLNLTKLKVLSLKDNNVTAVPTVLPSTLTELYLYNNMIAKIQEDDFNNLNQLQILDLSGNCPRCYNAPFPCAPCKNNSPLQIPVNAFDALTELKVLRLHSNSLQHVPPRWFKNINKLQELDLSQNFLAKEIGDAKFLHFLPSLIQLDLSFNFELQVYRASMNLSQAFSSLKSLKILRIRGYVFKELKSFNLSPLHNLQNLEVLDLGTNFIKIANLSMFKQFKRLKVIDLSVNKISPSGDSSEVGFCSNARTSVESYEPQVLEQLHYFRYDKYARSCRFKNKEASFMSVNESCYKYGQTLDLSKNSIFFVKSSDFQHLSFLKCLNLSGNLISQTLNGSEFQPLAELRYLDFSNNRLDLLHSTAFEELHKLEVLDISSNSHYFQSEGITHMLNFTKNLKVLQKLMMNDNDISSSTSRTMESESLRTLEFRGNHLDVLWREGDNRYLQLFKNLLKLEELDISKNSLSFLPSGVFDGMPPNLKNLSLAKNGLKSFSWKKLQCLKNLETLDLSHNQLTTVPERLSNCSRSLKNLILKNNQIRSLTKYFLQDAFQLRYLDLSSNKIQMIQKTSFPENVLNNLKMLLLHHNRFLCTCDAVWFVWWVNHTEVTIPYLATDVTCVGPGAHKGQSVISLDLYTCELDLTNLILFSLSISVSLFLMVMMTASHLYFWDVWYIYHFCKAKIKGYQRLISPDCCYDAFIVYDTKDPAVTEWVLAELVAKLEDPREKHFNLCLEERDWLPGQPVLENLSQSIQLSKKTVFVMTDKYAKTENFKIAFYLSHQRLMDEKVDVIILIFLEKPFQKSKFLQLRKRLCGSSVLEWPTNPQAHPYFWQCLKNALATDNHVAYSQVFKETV
Chain of human TLR9 (Q9NR96 26-1032): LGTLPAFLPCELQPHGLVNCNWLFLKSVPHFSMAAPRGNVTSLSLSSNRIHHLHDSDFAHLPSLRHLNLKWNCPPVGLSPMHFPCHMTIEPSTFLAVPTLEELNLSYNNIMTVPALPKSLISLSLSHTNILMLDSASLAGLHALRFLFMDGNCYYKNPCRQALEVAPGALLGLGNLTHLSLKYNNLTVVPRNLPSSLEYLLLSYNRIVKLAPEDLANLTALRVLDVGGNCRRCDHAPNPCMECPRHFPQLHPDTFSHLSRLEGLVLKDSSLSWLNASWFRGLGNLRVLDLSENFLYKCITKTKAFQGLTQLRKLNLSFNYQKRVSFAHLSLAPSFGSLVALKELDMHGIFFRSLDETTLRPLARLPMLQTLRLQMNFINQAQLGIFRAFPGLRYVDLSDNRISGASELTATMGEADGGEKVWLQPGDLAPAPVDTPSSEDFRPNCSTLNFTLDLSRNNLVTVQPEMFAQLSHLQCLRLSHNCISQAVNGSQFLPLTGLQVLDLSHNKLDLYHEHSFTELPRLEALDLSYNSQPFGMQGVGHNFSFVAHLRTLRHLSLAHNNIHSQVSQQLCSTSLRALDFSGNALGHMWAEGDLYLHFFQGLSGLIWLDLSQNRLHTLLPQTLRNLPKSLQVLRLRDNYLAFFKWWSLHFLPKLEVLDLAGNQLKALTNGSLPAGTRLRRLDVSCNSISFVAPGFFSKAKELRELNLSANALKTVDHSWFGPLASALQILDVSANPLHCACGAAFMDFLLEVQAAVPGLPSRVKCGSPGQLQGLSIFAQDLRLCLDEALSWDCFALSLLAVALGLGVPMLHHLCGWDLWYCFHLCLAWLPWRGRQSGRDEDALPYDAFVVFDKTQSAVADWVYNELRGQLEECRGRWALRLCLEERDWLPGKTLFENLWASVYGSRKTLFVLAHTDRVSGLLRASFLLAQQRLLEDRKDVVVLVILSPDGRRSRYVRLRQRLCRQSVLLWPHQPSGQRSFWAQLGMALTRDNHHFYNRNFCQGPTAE

For `Cc1cc(-c2[nH]c3ccc(C(C)(C)C(=O)NC4C[C@H]5CC[C@@H](C4)N5C)cc3c2C(C)C)ccn1` (stereo partly drawn) [Example 166, 2-(3-isopropyl-2-(2-methylpyridin-4-yl)-1H-indol-5-yl)-2-methyl-N-((1R,5S)-8-methyl-8-azabicyclo[3.2.1]octan-3-yl)propanamide], the IC50 was 8230 nM in assay [1], 22 nM in assay [2] and 135 nM in assay [3].

For `Cc1cc(-c2[nH]c3ccc(C(C)(C)C(=O)NC4CCC(N)CC4)cc3c2C(C)C)ccn1` (stereo not drawn) [Example 167, N-(4-aminocyclohexyl)-2-(3-isopropyl-2-(2-methylpyridin-4-yl)-1H-indol-5-yl)-2-methylpropanamide], the IC50 turned out to be 2900 nM in assay [1], 63 nM in assay [2] and 36 nM in assay [3].

With `Cc1cc(-c2[nH]c3ccc(C(C)(C)C(=O)NC4CCCC(N)C4)cc3c2C(C)C)ccn1` (stereo not drawn) [Example 168, N-(3-aminocyclohexyl)-2-(3-isopropyl-2-(2-methylpyridin-4-yl)-1H-indol-5-yl)-2-methylpropanamide], the IC50 in assay [1] came out at 2670 nM; in assay [2] it was 96 nM; in assay [3], 44 nM.

For the molecule `Cc1cc(-c2[nH]c3ccc(C(C)(C)C(=O)N[C@@H]4CCCC[C@H]4N)cc3c2C(C)C)ccn1` [Example 169, N—((R,2R)-2-aminocyclohexyl)-2-(3-isopropyl-2-(2-methylpyridin-4-yl)-1H-indol-5-yl)-2-methylpropanamide], the figures for the IC50 in assay [1], in assay [2] and in assay [3] were 899 nM, 16 nM and 7.1 nM, respectively.

Consider `Cc1cc(-c2[nH]c3ccc(C(C)(C)C(=O)N[C@H]4CCCC[C@H]4N)cc3c2C(C)C)ccn1` [Example 170, N-((1S,2R)-2-aminocyclohexyl)-2-(3-isopropyl-2-(2-methylpyridin-4-yl)-1H-indol-5-yl)-2-methylpropanamide], for which the values for the 50% inhibitory concentration (IC50) in assay [1], in assay [2] and in assay [3] were 1660 nM, 11 nM and 51 nM, respectively.

For the molecule `Cc1cc(-c2[nH]c3ccc(C(C)(C)C(=O)NCCC4CCCNC4)cc3c2C(C)C)ccn1` (stereo not drawn) [Example 171, 2-(3-isopropyl-2-(2-methylpyridin-4-yl)-1H-indol-5-yl)-2-methyl-N-(2-(piperidin-3-yl)ethyl)propanamide], the IC50 amounted to 5220 nM in assay [1], 67 nM in assay [2] and 602 nM in assay [3].

As to `Cc1cc(-c2[nH]c3ccc(C(C)(C)C(=O)NC[C@H]4CC[C@H](N)CC4)cc3c2C(C)C)ccn1` [Example 172, N-(((1r,4r)-4-aminocyclohexyl)methyl)-2-(3-isopropyl-2-(2-methylpyridin-4-yl)-1H-indol-5-yl)-2-methylpropanamide], the IC50 in assay [1] worked out at 1800 nM; in assay [2], 58 nM; in assay [3], 325 nM.

As to `Cc1cc(-c2[nH]c3ccc(C(C)(C)C(=O)NCC4(O)CCN(C)CC4)cc3c2C(C)C)ccn1` [Example 173, N-((4-hydroxy-1-methylpiperidin-4-yl)methyl)-2-(3-isopropyl-2-(2-methylpyridin-4-yl)-1H-indol-5-yl)-2-methylpropanamide], the figures for the half-inhibitory concentration (IC50) in assay [1], in assay [2] and in assay [3] were 691 nM, 57 nM and 150 nM, respectively.

`Cc1cc(-c2[nH]c3ccc(C(C)(C)C(=O)NCC4(O)CN5CCC4CC5)cc3c2C(C)C)ccn1` (stereo not drawn) [Example 174, N-((3-hydroxyquinuclidin-3-yl)methyl)-2-(3-isopropyl-2-(2-methylpyridin-4-yl)-1H-indol-5-yl)-2-methylpropanamide]: the IC50 in assay [1] came to 2060 nM; in assay [2], 54 nM; in assay [3], 550 nM.

Consider `Cc1cc(-c2[nH]c3ccc(C(C)(C)C(=O)N4CCNCC4)cc3c2C(C)C)ccn1` [Example 175, 2-(3-isopropyl-2-(2-methylpyridin-4-yl)-1H-indol-5-yl)-2-methyl-1-(piperazin-1-yl)propan-1-one], for which the IC50 in assay [1] is 1010 nM; in assay [2], 167 nM; in assay [3], 36 nM.

Turning to `Cc1cc(-c2[nH]c3ccc(C(C)(C)C(=O)N4CC5CC4CN5)cc3c2C(C)C)ccn1` (stereo not drawn) [Example 176, 1-(2,5-diazabicyclo[2.2.1]heptan-2-yl)-2-(3-isopropyl-2-(2-methylpyridin-4-yl)-1H-indol-5-yl)-2-methylpropan-1-one], the IC50 came to 8390 nM in assay [1], 260 nM in assay [2] and 211 nM in assay [3].

Take `Cc1cc(-c2[nH]c3ccc(C(C)(C)C(=O)N4CCC(OC5CCNCC5)CC4)cc3c2C(C)C)ccn1` [Example 177, 2-(3-isopropyl-2-(2-methylpyridin-4-yl)-1H-indol-5-yl)-2-methyl-1-(4-(piperidin-4-yloxy)piperidin-1-yl)propan-1-one]: the results for the IC50 in assay [1], in assay [2] and in assay [3] were 1460 nM, 128 nM and 58 nM, respectively.

As to `Cc1cc(-c2[nH]c3ccc(C(C)(C)C(=O)N4CCC5(CCNC5)C4)cc3c2C(C)C)ccn1` (stereo not drawn) [Example 178, 2-(3-isopropyl-2-(2-methylpyridin-4-yl)-1H-indol-5-yl)-2-methyl-1-(2,7-diazaspiro[4.4]nonan-2-yl)propan-1-one], the IC50 was determined as 1660 nM in assay [1], 61 nM in assay [2] and 859 nM in assay [3].

Turning to `Cc1cc(-c2[nH]c3ccc(C(C)(C)C(=O)N4CC5(CCNCC5)C4)cc3c2C(C)C)ccn1` [Example 179, 2-(3-isopropyl-2-(2-methylpyridin-4-yl)-1H-indol-5-yl)-2-methyl-1-(2,7-diazaspiro[3.5]nonan-2-yl)propan-1-one], the IC50 in assay [1] is 4930 nM; in assay [2], 35 nM; in assay [3], 1130 nM.

For the molecule `Cc1cc(-c2[nH]c3ccc(C(C)(C)C(=O)N4CCCC5(CNC5)C4)cc3c2C(C)C)ccn1` [Example 180, 2-(3-isopropyl-2-(2-methylpyridin-4-yl)-1H-indol-5-yl)-2-methyl-1-(2,6-diazaspiro[3.5]nonan-6-yl)propan-1-one], the IC50 in assay [1] stood at 1000 nM; in assay [2], 147 nM; in assay [3], 306 nM.

Consider `Cc1cc(-c2[nH]c3ccc(C(C)(C)C(=O)N4CCC5(CCNC5)CC4)cc3c2C(C)C)ccn1` [Example 181, 2-(3-isopropyl-2-(2-methylpyridin-4-yl)-1H-indol-5-yl)-2-methyl-1-(2,8-diazaspiro[4.5]decan-8-yl)propan-1-one], for which the IC50 in assay [1] came out at 1950 nM; in assay [2] it was 76 nM; in assay [3] it was 1240 nM.

As for `Cc1cc(-c2[nH]c3ccc(C(C)(C)C(=O)N4CCCCC4C4CCNCC4)cc3c2C(C)C)ccn1` (stereo not drawn) [Example 182, 1-([2,4′-bipiperidin]-1-yl)-2-(3-isopropyl-2-(2-methylpyridin-4-yl)-1H-indol-5-yl)-2-methylpropan-1-one], the values for the IC50 in assay [1], in assay [2] and in assay [3] were 716 nM, 15 nM and 81 nM, respectively.

Turning to `Cc1cc(-c2[nH]c3ccc(C(C)(C)C(=O)N4CC5CNCC5C4)cc3c2C(C)C)ccn1` (stereo not drawn) [Example 183, 1-(hexahydropyrrolo[3,4-c]pyrrol-2(1H)-yl)-2-(3-isopropyl-2-(2-methylpyridin-4-yl)-1H-indol-5-yl)-2-methylpropan-1-one], the IC50 was 387 nM in assay [1], 30 nM in assay [2] and 103 nM in assay [3].

Turning to `Cc1cc(-c2[nH]c3ccc(C(C)(C)C(=O)N4CCCC5(CCNC5)C4)cc3c2C(C)C)ccn1` (stereo not drawn) [Example 184, 2-(3-isopropyl-2-(2-methylpyridin-4-yl)-1H-indol-5-yl)-2-methyl-1-(2,7-diazaspiro[4.5]decan-7-yl)propan-1-one], the figures for the IC50 in assay [1], in assay [2] and in assay [3] were 533 nM, 91 nM and 139 nM, respectively.

`Cc1cc(-c2[nH]c3ccc(C(C)(C)C(=O)N4CC5CNC5C4)cc3c2C(C)C)ccn1` (stereo not drawn) [Example 185, 1-(3,6-diazabicyclo[3.2.0]heptan-3-yl)-2-(3-isopropyl-2-(2-methylpyridin-4-yl)-1H-indol-5-yl)-2-methylpropan-1-one]: the IC50 turned out to be 11900 nM in assay [1], 71 nM in assay [2] and 554 nM in assay [3].

Regarding `Cc1cc(-c2[nH]c3ccc(C(C)C(=O)NC4CCC5CNCC54)cc3c2C(C)C)ccn1` (stereo not drawn) [Example 186, 2-(3-isopropyl-2-(2-methylpyridin-4-yl)-1H-indol-5-yl)-N-(octahydrocyclopenta[c]pyrrol-4-yl)propanamide], the results for the IC50 in assay [1], in assay [2] and in assay [3] were 599 nM, 146 nM and 100 nM, respectively.

In the case of `Cc1cc(-c2[nH]c3ccc(C(C)C(=O)NC4CCC5CNCC54)cc3c2C(C)C)ccn1` (stereo not drawn) [Example 187, 2-(3-isopropyl-2-(2-methylpyridin-4-yl)-1H-indol-5-yl)-N-(octahydrocyclopenta[c]pyrrol-4-yl)propanamide], the IC50 in assay [1] was found to be 1350 nM; in assay [2], 223 nM; in assay [3] it was 496 nM.

Regarding `Cc1cc(-c2[nH]c3ccc(C(C)C(=O)N[C@@H]4CCNC4)cc3c2C(C)C)ccn1` (stereo partly drawn) [Example 188, 2-(3-isopropyl-2-(2-methylpyridin-4-yl)-1H-indol-5-yl)-N—((R)-pyrrolidin-3-yl)propanamide], the figures for the IC50 in assay [1], in assay [2] and in assay [3] were 2620 nM, 458 nM and 387 nM, respectively.

Consider `Cc1cc(-c2[nH]c3ccc(C(C)C(=O)N[C@H]4CCNC4)cc3c2C(C)C)ccn1` (stereo partly drawn) [Example 189, 2-(3-isopropyl-2-(2-methylpyridin-4-yl)-1H-indol-5-yl)-N—((S)-pyrrolidin-3-yl)propanamide], for which the IC50 in assay [1] came out at 1680 nM; in assay [2] it was 268 nM; in assay [3], 246 nM.

With `Cc1cc(-c2[nH]c3ccc(C(C)C(=O)N[C@H]4CCNC4)cc3c2C(C)C)ccn1` (stereo partly drawn) [Example 190, 2-(3-isopropyl-2-(2-methylpyridin-4-yl)-1H-indol-5-yl)-N—((S)-pyrrolidin-3-yl)propanamide], the IC50 in assay [1] was determined as 957 nM; in assay [2], 137 nM; in assay [3], 211 nM.

By IC50 is commonly meant the concentration that gives 50% inhibition.
